According to US9181234B2, “Antibacterial compounds” (priority 2010, dated 2015):
In brackets after ≈: the same amount, converted by molar mass.

What was measured:
[1] = tested on: Staphylococcus aureus (Isolate ID ATCC 29213); experiment: Antibacterial activity, MIC, S. aureus; type: cell-based; conditions: broth microdilution or agar dilution; for MIC: Staphylococcus aureus, ATCC29213, Gram positive strain
In short: (§1)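 Readout is the MIC, established according to CLSI standard M7-A7 using either agar dilution or broth microdilution.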

[2] = tested on: Streptococcus pyogenes (Isolate ID ATCC 51339); experiment: Antibacterial activity, MIC, S. pyogenes; type: cell-based; conditions: broth microdilution or agar dilution; for MIC: Streptococcus pyogenes, ATCC51339, Gram positive strain
In short: as §1

[3] = tested on: Haemophilus influenzae (Isolate ID ATCC 49247); experiment: Antibacterial activity, MIC, H. influenzae; type: cell-based; conditions: Gram negative strain, broth microdilution or agar dilution; for MIC: Haemophilus influenzae, ATCC49247
In short: as §1

[4] = tested on: Enterococcus faecalis (Isolate ID ATCC 29212); experiment: Antibacterial activity, MIC, E. faecalis; type: cell-based; conditions: Enterococcus faecalis, ATCC29212; Gram positive strain; broth microdilution or agar dilution
Procedure: Bacterial Assay: Determination of Antibacterial Activity
Compounds of the invention were tested for antimicrobial activity by susceptibility testing in liquid or on solid media. MICs for compounds against each strain were determined by the broth microdilution or agar dilution method according to the guidelines of the Clinical Laboratories and Standards Institute, formerly the National Committee for Clinical Laboratory Standards (Clinical Laboratories and Standards Institute. Methods for Dilution Antimicrobial Susceptibility Tests for Bacteria That Grow Aerobically; Approved Standard—Seventh Edition. Document M7-A7. CLSI, Wayne, Pa., 2006; Clinical Laboratories and Standards Institute. The gram positive bacterial strains tested include S. aureus (Staphylococcus aureus (Isolate ID ATCC 29213)), E. faecalis (Enterococcus faecalis (Isolate ID ATCC 29212)) and S. pyogenes (Streptococcus pyogenes (Isolate ID ATCC 51339)). The gram negative bacterial strains tested include H. influenzae (Haemophilus influenzae (Isolate ID ATCC 49247))

physchem = conditions: for solubility at 24 h: kinetic from dmso stock
In short: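 DMSO doubling dilutions were diluted twenty-fold into 100 mM citrate (pH 4), PBS (pH 7.4) or carbonate-bicarbonate (pH 9). After 24 h equilibration at room temperature, absorbance was read at 620 nm. The reported value is the highest concentration without measurable precipitate.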

[5] = pH 7.4, aqueous buffer, Solubility (pH 7.4)
[6] = pH 7.4, aqueous buffer, Solubility Range
[7] = pH 7.4, aqueous buffer, Max Solubility
[8] = pH 7.4, aqueous buffer, Solubility Range (maximum solubility)

Compound | MIC [1] [µg/mL] | MIC [2] [µg/mL] | MIC [3] [µg/mL] | MIC [4] [µg/mL] | solubility at 24 h (physchem; [5]) [µg/mL] | solubility at 24 h (physchem; [6]) [µg/mL] | solubility at 24 h (physchem; [7]) [µg/mL] | solubility at 24 h (physchem; [8]) [µg/mL] | other results
CCNC(=O)Nc1nc2cc(-c3cnc(N4CCCCC4(C)C(=O)O)nc3)cc(-c3ccccn3)c2s1 (centres unmarked) [Compound 2] | 0.25 to 1 (≈ 0.483 to 1.93 µM) | 0.25 to 1 (≈ 0.483 to 1.93 µM) | 1 to 16 (≈ 1.93 to 30.9 µM) | 0.25 to 1 (≈ 0.483 to 1.93 µM) | 6.25 (≈ 12.1 µM) | < 12.5 |  |  | 
CCNC(=O)Nc1nc2cc(-c3cnc(N4CCC(O)C(C)(C(=O)O)C4)nc3)cc(-c3ccccn3)c2s1 (centres unmarked) [Compound 3] | 1 to 16 (≈ 1.87 to 30 µM) | ≤ 0.25 | 1 to 16 (≈ 1.87 to 30 µM) | 0.25 to 1 (≈ 0.469 to 1.87 µM) | 400 (≈ 750 µM) | 400 to 800 (≈ 750 to 1500 µM) |  |  | 
CCNC(=O)Nc1nc2cc(-c3cnc(N4CCC(C)(C(=O)O)CC4)c(C)c3)cc(-c3ccccn3)c2s1 [Compound 5] | ≤ 0.25 | ≤ 0.25 | > 16 | ≤ 0.25 | ≥ 800 | > 800 |  |  | 
CCNC(=O)Nc1nc2cc(-c3cnc(N4CCC(C)(C(=O)O)CC4)nc3)cc(-c3cc(C)ccn3)c2s1 [Compound 6, 1-[5-[2-(ethylcarbamoylamino)-7-(4-methyl-2-pyridyl)-1,3-benzothiazol-5-yl]pyrimidin-2-yl]-4-methyl-piperidine-4-carboxylic acid] | ≤ 0.25 | ≤ 0.25 | 1 to 16 (≈ 1.88 to 30.1 µM) | ≤ 0.25 | 400 (≈ 752 µM) | 400 to 800 (≈ 752 to 1500 µM) |  |  | 
CCNC(=O)Nc1nc2cc(-c3cnc(N4CCC(C)(C(=O)O)CC4)nc3)cc(-c3ccc(OC)c(OC)n3)c2s1 [Compound 7] | ≤ 0.25 | ≤ 0.25 | 0.25 to 1 (≈ 0.433 to 1.73 µM) | ≤ 0.25 | 400 (≈ 692 µM) | 400 to 800 (≈ 692 to 1380 µM) |  |  | 
CCNC(=O)Nc1nc2cc(-c3cnc(N4CCC(C)(C(=O)O)CC4)nc3)cc(-c3nccc(OC)n3)c2s1 [Compound 8] | ≤ 0.25 | ≤ 0.25 | 1 to 16 (≈ 1.82 to 29.2 µM) | ≤ 0.25 | 100 (≈ 182 µM) | 12.5 to 400 (≈ 22.8 to 729 µM) |  |  | 
CCNC(=O)Nc1nc2cc(-c3cnc(N4CCC(C)(C(=O)O)C(C)C4)nc3)cc(-c3ccccn3)c2s1 (centres unmarked) [Compound 9] | ≤ 0.25 | ≤ 0.25 | 1 to 16 (≈ 1.88 to 30.1 µM) | ≤ 0.25 | ≥ 800 | > 800 |  |  | 
CCNC(=O)Nc1nc2cc(-c3cnc(N4CCC(C)(C(=O)O)CC4)nc3)cc(CC)c2s1 [Compound 37, 1-{5-[7-Ethyl-2-(3-ethyl-ureido)-benzothiazol-5-yl]-pyrimidin-2-yl}-4-methyl-piperidine-4-carboxylic acid] | 0.25 to 1 (≈ 0.534 to 2.13 µM) | 1 to 16 (≈ 2.13 to 34.1 µM) | > 16 | ≤ 0.25 |  |  |  |  | 
CCNC(=O)Nc1nc2cc(-c3cnc(N4CCC(C)(C(=O)O)CC4)nc3)cc(C3CCCCC3)c2s1 [Compound 39, 1-{5-[7-Cyclohexyl-2-(3-ethyl-ureido)-benzothiazol-5-yl]-pyrimidin-2-yl}-4-methyl-piperidine-4-carboxylic acid] | 1 to 16 (≈ 1.91 to 30.6 µM) | > 16 | > 16 | ≤ 0.25 |  |  |  |  | 
CCNC(=O)Nc1nc2cc(-c3cnc(N4CCC(CC)(C(=O)O)CC4)nc3)cc(-c3cc(=O)[nH]cn3)c2s1 [Compound 111] | > 16 | 1 to 16 (≈ 1.82 to 29.2 µM) | > 16 | 1 to 16 (≈ 1.82 to 29.2 µM) |  |  |  |  | 
CCNC(=O)Nc1nc2cc(-c3cnc(N4CCC(CC)(C(=O)O)CC4)s3)cc(-c3ccccn3)c2s1 [Compound 221, 4-Ethyl-1-[5-[2-(ethylcarbamoylamino)-7-(2-pyridyl)-1,3-benzothiazol-5-yl]thiazol-2-yl]piperidine-4-carboxylic acid] | ≤ 0.25 | ≤ 0.25 | 1 to 16 (≈ 1.86 to 29.8 µM) |  | ≥ 800 | > 800 | ≥ 800 | > 800 | 
CCNC(=O)Nc1nc2cc(-c3cnc(NC4CCC(C)(C(=O)O)CC4)nc3)cc(-c3ccccn3)c2s1 (centres unmarked) [Compound 222] | ≤ 0.25 | ≤ 0.25 | 0.25 to 1 (≈ 0.47 to 1.88 µM) |  | ≥ 800 | > 800 | ≥ 800 | > 800 | 
CCNC(=O)Nc1nc2cc(-c3cnc(N4CCC(CC)(C(=O)O)CC4)nc3)cc(/C(CC)=N\OC)c2s1 [Compound 223, (E/Z)-4-ethyl-1-(5-(2-(3-ethylureido)-7-(1-(methoxyimino)propyl)benzo[d]thiazol-5-yl)pyrimidin-2-yl)piperidine-4-carboxylic acid] |  |  |  |  |  |  |  |  | Antibacterial Activity (MIC) S. aureus (ATCC 29213) ([1]; Gram positive strain): A (“A” activity ≦0.25 μg/mL); Antibacterial Activity (MIC) S. pyogenes (ATCC 51339) ([2]; Gram positive strain): A (“A” activity ≦0.25 μg/mL); Antibacterial Activity (MIC) H. influenzae (ATCC 49247) [3]: C (“C” activity >1.0 μg/mL-16 μg/mL); Solubility (pH 7.4) (physchem; 24 h, pH 7.4): 100 μg/mL; solubility at 24 h (physchem; pH 9, aqueous buffer, Max Solubility): 400 µg/mL (≈ 741 µM); solubility at 24 h (physchem; pH 9, aqueous buffer, Solubility Range (maximum solubility)): 400 to 800 µg/mL (≈ 741 to 1480 µM)
CCNC(=O)Nc1nc2cc(-c3cnc(N4CCC(CC)(C(=O)O)CC4)nc3)cc(/C(CC)=N/OC)c2s1 [Compound 224, 4-ethyl-1-[5-[2-(ethylcarbamoylamino)-7-[(E)-C-ethyl-N-methoxy-carbonimidoyl]-1,3-benzothiazol-5-yl]pyrimidin-2-yl]piperidine-4-carboxylic acid] | ≤ 0.25 | ≤ 0.25 | 1 to 16 (≈ 1.85 to 29.6 µM) |  | ≥ 800 | > 800 | ≥ 800 | > 800 | 
CCNC(=O)Nc1nc2cc(-c3cnc(N4CCC(CC)(C(=O)O)CC4)nc3)cc(/C=N\OC)c2s1 [Compound 225, 4-Ethyl-1-[5-[2-(ethylcarbamoylamino)-7-[(Z)-methoxyiminomethyl]-1,3-benzothiazol-5-yl]pyrimidin-2-yl]piperidine-4-carboxylic acid] | ≤ 0.25 | ≤ 0.25 | 0.25 to 1 (≈ 0.489 to 1.95 µM) |  | ≥ 800 | > 800 | ≥ 800 | > 800 | 
CCNC(=O)Nc1nc2cc(-c3cnc(N4CCC(CC)(C(=O)O)CC4)nc3)cc(-c3ncc(C)cn3)c2s1 [Compound 226] | ≤ 0.25 | ≤ 0.25 | 0.25 to 1 (≈ 0.457 to 1.83 µM) |  | ≥ 800 | > 800 | ≥ 800 | > 800 | 
CCNC(=O)Nc1nc2cc(-c3cnc(N4CCC(C)(C(=O)O)CC4)nc3)cc(-n3cccn3)n2n1 [Compound 227, 1-(5-{2-[(ethylcarbamoyl)amino]-5-(1H-pyrazol-1-yl)[1,2,4]triazolo[1,5-a]pyridin-7-yl}pyrimidin-2-yl)-4-methylpiperidine-4-carboxylic acid] | 1 to 16 (≈ 2.04 to 32.6 µM) | 1 to 16 (≈ 2.04 to 32.6 µM) | 1 to 16 (≈ 2.04 to 32.6 µM) |  | 400 (≈ 815 µM) | 400 to 800 (≈ 815 to 1630 µM) | 400 (≈ 815 µM) | 400 to 800 (≈ 815 to 1630 µM) | 
CCNC(=O)Nc1nc2cc(-c3cnc(N4CCC(CC)(C(=O)O)CC4)nc3)cc(-c3ncccn3)c2s1 [Compound 228] | ≤ 0.25 | ≤ 0.25 | 1 to 16 (≈ 1.88 to 30 µM) |  | 200 (≈ 375 µM) | 12.5 to 400 (≈ 23.5 to 751 µM) | 200 (≈ 375 µM) | 12.5 to 400 (≈ 23.5 to 751 µM) | 
CCNC(=O)Nc1nc2cc(-c3cnc(N4CCC(CC)(C(=O)O)CC4)nc3)cc(-c3ccccn3)c2[nH]1 [Compound 229, 4-Ethyl-1-(5-(2-(3-ethylureido)-7-(pyridin-2-yl)-1H-benzoimidazol-5-yl)pyrimidin-2-yl)piperidine-4-carboxylic acid] | ≤ 0.25 | ≤ 0.25 | 1 to 16 (≈ 1.94 to 31.1 µM) |  |  |  |  |  | solubility at 24 h (physchem; pH 7.4, aqueous buffer, Solubility (pH 7.4), pH 7.4 (PBS), 24 hours at room temperature, turbidimetric): 100 µg/mL (≈ 194 µM); solubility at 24 h (physchem; pH 7.4, aqueous buffer, Solubility Range, pH 7.4): 12.5 to 400 µg/mL (≈ 24.3 to 777 µM); solubility at 24 h (physchem; pH 9, aqueous buffer, Max Solubility, maximum of pH 4, 7.4 and 9, shown at pH 9): 200 µg/mL (≈ 389 µM); solubility at 24 h (physchem; pH 9, aqueous buffer, Solubility Range (maximum solubility), maximum of pH 4, 7.4 and 9, shown at pH 9): 12.5 to 400 µg/mL (≈ 24.3 to 777 µM)
